{
  "source": "paper PMC10564737",
  "about": "“Structure-based design of a phosphotyrosine-masked covalent ligand targeting the E3 ligase SOCS2” (Nature Communications, 2023)",
  "key": {"[1]": {"assay": "In-cell time-resolved 19F-NMR of prodrug unmasking", "format": "in vitro ADME", "conditions": "human, K562 cell suspension (65% v/v cell content), 37 °C, read-out: half-life time of prodrug unmasking in cells", "text": "(§1) Although, with the live-cell CETSA setup we could rank the prodrugs for overall potency, we cannot decouple the individual contributions of cellular permeability and prodrug unmasking rate. To understand the rate of unmasking inside the live cells, we developed an in-cell time-resolved ^19F-NMR to monitor the rate of POM group unmasking (Fig. 5). ^19F-NMR is uniquely suited for this task due to the high receptivity of ^19F, low background in biological samples, and remarkable sensitivity of ^19F chemical shifts to their chemical environment[43],[44]. The latter means that even the distant fluorine of MN551 could act as a reporter for the presence of the masking group on the phosphotyrosine moiety. […] While the downfield peak starts off with higher intensity, it loses intensity quickly and within an hour is overtaken by the growing upfield peak. Within 3 h the downfield peak completely disappears and only the upfield peak is observed. […]\n(§2) K562 cells were maintained in IMDM media supplemented with 10% FBS. […] To confirm the identity of the observed species, the lysate was sequentially spiked with 500 µM MN551 and prodrug and measured again. […] All spectra were processed and analyzed using Topspin 4.1.1."}, "K562 cells": {"system": "K562 cells", "assay": "In-cell time-resolved 19F-NMR of prodrug unmasking", "format": "in vitro ADME", "conditions": "K562 cell suspension, 500 µM, 37 °C", "text": "as §1, §2"}},
  "data": [
    {"smiles": "CC(C)(C)C(=O)OCOP(=O)(OCOC(=O)C(C)(C)C)Oc1ccc(C[C@H](NC(=O)Cc2ccc(F)cc2)C(=O)NCc2cccc(NC(=O)CCl)c2)cc1", "note": "[MN714]", "values": [
      {"measurement": "half-life at 500 µM", "setting": "[1]", "value": "1 to 1.5", "unit": "h"},
      {"measurement": "time to complete disappearance of the prodrug (downfield) peak", "setting": "K562 cells", "value": "≤ 3", "unit": "h"}
    ]}
  ]
}
